Test system: Aedes aegypti
Assay: Examination of repellent activity using skin test (treated human forearm in cage of about 100 mated female mosquitoes)
Type: in vivo
Settings: for Effective repellency duration (hour) (mean ± standard deviation): maximum measurement time 12 hours
Text: Citronellic acid and geranic acid, which are used in the present invention, are commercially available or can directly be synthesized. In this embodiment, products of Aldrich Co. (product names are respectively Citronellic acid and Geranic acid) were purchased and used as citronellic acid and geranic acid. Purities of the above two compounds were examined using a gas chromatograph (GC) and a gas chromatograph-mass spectrometry (GC-MS). The compounds having purity of 99.5% or greater were only used. Respective ingredients of the above compounds were added to isopropyl alcohol of 91% to make test samples consisting of a solution in the concentration of 0.5 to 50%. The samples were used for mosquito repellent efficacy experiments.
The test samples manufactured as above underwent repellent effective experiments with respect to Aedes which is a main mosquito group attacking human.
In this embodiment, Aedes aegypti was used as test mosquitoes. The Aedes aegypti was supplied from Korea Research Institute of Bioscience and Biotechnology and reared indoor from generation to generation.
The larvae of the Aedes aegypti were reared in a plastic container of 22×14×7 cm containing distilled water with small amount of one-to-one mixture of chicken feed and yeast. Fresh mosquito pupae were transferred into a paper cup containing water and then placed in a transparent rearing cage to emerge as adults. Here, the rearing cage was constructed with metal net. Males and females of the freshly emerged mosquitoes were transferred to a rearing cage at one-to-one ratio, and left for two or three days for mating. The female mosquitoes were then used for repellency tests. Eight percent (8%) sugar water was supplied for the adult mosquitoes. The following rearing conditions were maintained: light condition of 16 h:8 h (day:night), temperature of 27±2° C., and relative humidity of 80±10%.
In order to examine effectiveness of the mosquito repellent of the prepared sample solutions, one (1) ml of a sample solution was uniformly applied, using a metal rod, on a forearm of a volunteer human test subject between wrist and elbow. Thereafter, the arm treated with the test solution was inserted in a bioassay cage, constructed with Plexiglass of 50×50×50 cm containing approximately 100 mated female mosquitoes. The number of mosquitoes trying to bite was recorded for three minutes in every thirty minutes for up to 4 hours or in every hour for up to 12 hours. The time required to get the arm bitten by two cumulative mosquitoes was regarded as effective repellency duration. A net window of 40×40 cm was present at each side and top of the Plexiglass bioassay cage to allow air ventilation. A 15×15 cm hole was prepared at the front side of the Plexiglass bioassay cage and a long net sleeve was attached to the hole so that the test arm could be put into the cage for repellency test.
At the beginning of each repellency test, an arm treated with no solvent was placed in the bioassay cage containing mosquitoes, in order to examine blood feeding activity of the mated female test mosquitoes. The repellency tests with the test solutions were carried out only when the arm was bitten by at least two mosquitoes for initial three minutes.
Repellent activity against Aedes was examined in accordance with the aforementioned method using the samples which respectively contain citronellic acid and geranic acid. Also, mosquito repellent activity was measured with solutions which contain DEET and Picadirin, wherein the DEET and Picadirin are commercially available mosquito repellents which are currently recommended by the Center for Disease Control of the United States.
In Table 4 to Table 6, the repellent efficiency was calculated using the following Equation 1.

[1] = 10% (0.25 mg/cm^3), 120 minutes
[2] = 10% (0.25 mg/cm^3), 150 minutes
[3] = 10% (0.25 mg/cm^3), 180 minutes
[4] = 10% (0.25 mg/cm^3), 210 minutes
[5] = 10% (0.25 mg/cm^3), 240 minutes
[6] = concentration 10% (0.25 mg/cm^3), time until two cumulative bites, maximum measurement time 240 minutes

In the case of `CC(C)=CCC/C(C)=C/C(=O)O` [Geranic acid, geranic acid], the “Repellent efficiency (%) per time (minutes)” value (2% (0.05 mg/cm^3), 30 minutes) was 100%, the “Repellent efficiency (%) per time (minutes)” value (2% (0.05 mg/cm^3), 60 minutes) was 100% and the “Repellent efficiency (%) per time (minutes)” value (2% (0.05 mg/cm^3), 90 minutes) was 100%. For the same compound, the “Repellent efficiency (%) per time (minutes)” value (2% (0.05 mg/cm^3), 120 minutes) was 100%, the “Repellent efficiency (%) per time (minutes)” value (2% (0.05 mg/cm^3), 150 minutes) was 83.3% and the “Repellent efficiency (%) per time (minutes)” value (2% (0.05 mg/cm^3), 180 minutes) was 50.0%. The “Repellent efficiency (%) per time (minutes)” value (2% (0.05 mg/cm^3), 210 minutes) was 50.0%, the “Repellent efficiency (%) per time (minutes)” value (2% (0.05 mg/cm^3), 240 minutes) was 33.3% and the “Repellent efficiency (%) per time (minutes)” value (10% (0.25 mg/cm^3), 30 minutes) was 100%. For the same compound, the “Repellent efficiency (%) per time (minutes)” value (10% (0.25 mg/cm^3), 60 minutes) was 100%, the “Repellent efficiency (%) per time (minutes)” value (10% (0.25 mg/cm^3), 90 minutes) was 100% and the “Repellent efficiency (%) per time (minutes)” value [1] was 100%. The “Repellent efficiency (%) per time (minutes)” value [2] was 100%, the “Repellent efficiency (%) per time (minutes)” value [3] was 100% and the “Repellent efficiency (%) per time (minutes)” value [4] was 100%. The “Repellent efficiency (%) per time (minutes)” value [5] was 87.5%, the “Repellent efficiency (%) per time (hours)” value (15% (0.375 mg/cm^3), 1 hour) was 100% and the “Repellent efficiency (%) per time (hours)” value (15% (0.375 mg/cm^3), 2 hours) was 100%. The “Repellent efficiency (%) per time (hours)” value (15% (0.375 mg/cm^3), 3 hours) was 100%, the “Repellent efficiency (%) per time (hours)” value (15% (0.375 mg/cm^3), 4 hours) was 81.8% and the “Repellent efficiency (%) per time (hours)” value (15% (0.375 mg/cm^3), 5 hours) was 72.7%. For the same compound, the “Repellent efficiency (%) per time (hours)” value (15% (0.375 mg/cm^3), 6 hours) was 54.5%, the “Repellent efficiency (%) per time (hours)” value (15% (0.375 mg/cm^3), 7 hours) was 54.5% and the “Repellent efficiency (%) per time (hours)” value (15% (0.375 mg/cm^3), 8 hours) was 54.5%. The “Repellent efficiency (%) per time (hours)” value (15% (0.375 mg/cm^3), 9 hours) was 45.5%, the “Repellent efficiency (%) per time (hours)” value (30% (0.75 mg/cm^3), 1 hour) was 100% and the “Repellent efficiency (%) per time (hours)” value (30% (0.75 mg/cm^3), 2 hours) was 100%. The “Repellent efficiency (%) per time (hours)” value (30% (0.75 mg/cm^3), 3 hours) was 100%, the “Repellent efficiency (%) per time (hours)” value (30% (0.75 mg/cm^3), 4 hours) was 100% and the “Repellent efficiency (%) per time (hours)” value (30% (0.75 mg/cm^3), 5 hours) was 100%. The “Repellent efficiency (%) per time (hours)” value (30% (0.75 mg/cm^3), 6 hours) was 85.7%, the “Repellent efficiency (%) per time (hours)” value (30% (0.75 mg/cm^3), 7 hours) was 85.7% and the “Repellent efficiency (%) per time (hours)” value (30% (0.75 mg/cm^3), 8 hours) was 85.7%. For the same compound, the “Repellent efficiency (%) per time (hours)” value (30% (0.75 mg/cm^3), 9 hours) was 85.7%, the “Repellent efficiency (%) per time (hours)” value (30% (0.75 mg/cm^3), 10 hours) was 85.7% and the “Repellent efficiency (%) per time (hours)” value (30% (0.75 mg/cm^3), 11 hours) was 78.6%. For the same compound, the “Repellent efficiency (%) per time (hours)” value (30% (0.75 mg/cm^3), 12 hours) was 71.4%, the “Repellent efficiency (%) per time (hours)” value (50% (1.25 mg/cm^3), 1 hour) was 100% and the “Repellent efficiency (%) per time (hours)” value (50% (1.25 mg/cm^3), 2 hours) was 100%. The “Repellent efficiency (%) per time (hours)” value (50% (1.25 mg/cm^3), 3 hours) was 100%, the “Repellent efficiency (%) per time (hours)” value (50% (1.25 mg/cm^3), 4 hours) was 100% and the “Repellent efficiency (%) per time (hours)” value (50% (1.25 mg/cm^3), 5 hours) was 100%. For the same compound, the “Repellent efficiency (%) per time (hours)” value (50% (1.25 mg/cm^3), 6 hours) was 100%, the “Repellent efficiency (%) per time (hours)” value (50% (1.25 mg/cm^3), 7 hours) was 100% and the “Repellent efficiency (%) per time (hours)” value (50% (1.25 mg/cm^3), 8 hours) was 100%. For the same compound, the “Repellent efficiency (%) per time (hours)” value (50% (1.25 mg/cm^3), 9 hours) was 100%, the “Repellent efficiency (%) per time (hours)” value (50% (1.25 mg/cm^3), 10 hours) was 100% and the “Repellent efficiency (%) per time (hours)” value (50% (1.25 mg/cm^3), 11 hours) was 90%. The “Repellent efficiency (%) per time (hours)” value (50% (1.25 mg/cm^3), 12 hours) was 80%, the “repellency (in words)” value (at the level of 0.0125 mg/cm^3) was “did not represent any repellency” and the “time for which repellent efficiency of 100% was shown” value (shortened to “time … of 100% was shown”) (at the level of 0.05 mg/cm^3) was 120 min. For the same compound, the “time … of 100% was shown” value (at the level of 0.25 mg/cm^3) was 210 min, the “Effective repellency duration (minute) (mean ± standard deviation)” value (concentration 0.5% (0.0125 mg/cm^3), time until arm bitten by two cumulative mosquitoes) was 0 ± 0 min and the “Effective repellency duration (minute) (mean ± standard deviation)” value (concentration 2% (0.05 mg/cm^3), time until arm bitten by two cumulative mosquitoes) was 195 ± 45.0 min. For the same compound, the “Effective repellency duration (minute) (mean ± standard deviation)” value (concentration 2% (0.05 mg/cm^3), time until arm bitten by two cumulative mosquitoes, listed as geranic acid) was 195 min, the “Effective repellency duration (minute) (mean ± standard deviation)” value [6] was 240 ± 0 min and the “Effective repellency duration (minute) (mean ± standard deviation)” value (concentration 10% (0.25 mg/cm^3), time until two cumulative bites, maximum measurement time 240 minutes, listed as geranic acid) was 240 min. The “Effective repellency duration (hour) (mean ± standard deviation)” value (concentration 15% (0.375 mg/cm^3)) was 6.7 ± 1.20 h, the “Effective repellency duration (hour) (mean ± standard deviation)” value (concentration 30% (0.75 mg/cm^3)) was 10.0 ± 2.00 h and the “Effective repellency duration (hour) (mean ± standard deviation)” value (concentration 30% (0.75 mg/cm^3), listed as geranic acid) was 10 h. For the same compound, the “Effective repellency duration (hour) (mean ± standard deviation)” value (concentration 50% (1.25 mg/cm^3)) was 12.0 ± 0 h, the “Effective repellency duration (hour) (mean ± standard deviation)” value (concentration 50% (1.25 mg/cm^3), listed as geranic acid) was 12 h and the repellent efficiency (for 10 hours at the level of 0.75 mg/cm^3) was about 90%. The repellent efficiency (for 10 hours at the level of 1.25 mg/cm^3) was 100%.
With `CCC(C)OC(=O)N1CCCCC1CCO` (stereo not drawn) [Picadirin, reference compound] the “Repellent efficiency (%) per time (minutes)” value (10% (0.25 mg/cm^3), 30 minutes) was 85.0%, the “Repellent efficiency (%) per time (minutes)” value (10% (0.25 mg/cm^3), 60 minutes) was 85.0% and the “Repellent efficiency (%) per time (minutes)” value (10% (0.25 mg/cm^3), 90 minutes) was 85.0%. For the same compound, the “Repellent efficiency (%) per time (minutes)” value [1] was 80.0%, the “Repellent efficiency (%) per time (minutes)” value [2] was 75.0% and the “Repellent efficiency (%) per time (minutes)” value [3] was 72.5%. For the same compound, the “Repellent efficiency (%) per time (minutes)” value [4] was 62.5%, the “Repellent efficiency (%) per time (minutes)” value [5] was 47.5% and the “time … of 100% was shown” value (at the level of 0.25 mg/cm^3) was “less than 30 minutes”. The “Effective repellency duration (minute) (mean ± standard deviation)” value [6] was 158 min and the “Effective repellency duration (minute) (mean ± standard deviation)” value (concentration 10% (0.25 mg/cm^3), time until two cumulative bites, maximum measurement time 240 minutes, listed as Picadrin) was 158 ± 27.5 min.

Source: patent publication US8841343B2, “Composition for repelling mosquitoes” (Bio & Hnt, Inc., priority 2006, dated 2014)
